Laboratory results from patent publication US6838467B2, “Dosing regimen” (Janssen Pharmaceutica N. V., priority 2000, dated 2005).

Assays:
Assay type in all cases: in vivo
[1] = tested on: T24 H-ras transformed NIH3T3 cell tumors; experiment: Tumor studies in nude mice: T24 H-ras tumors, oral compound 1; conditions: for duration of response (tumor suppressive effect): five-day dosing schedule
[2] = tested on: CAPAN-2 human pancreatic tumors; experiment: Tumor studies in nude mice: CAPAN-2 tumors, oral compound 1; conditions: for tumor growth, continuous schedule: continuous for 18 days, previous study
Description: (§1) Cell Culture: CAPAN-2 human pancreatic carcinoma cells were purchased from the American Type Culture Collection (Rockville, Md.). Cells were maintained in McCoys 5A Medium supplemented with 10% fetal calf serum and penicillin-streptomycin. NIH 3T3 cells transfected with the activated T24 H-ras oncogene (T24 cells ) were obtained from, Janssen Research Foundation (For methods see Parada, L. F., Tabin, C. J., Shih, C., and Weinberg, R Human EJ bladder carcinoma oncogene is
(§2) Animals: Female nu/nu immunodeficient nude mice (42 days old) were purchased from Charles River Laboratories (Wilmington, Mass.). Mice were housed five per cage in microisolator cages placed in laminar flow shelving to maintain sterility. All bedding, food, water and cages were autoclaved. Animals were handled within the sterile confines of a laminar flow cabinet. The mice were otherwise maintained under standard vivarium conditions. Tumor studies were conducted under a protocol approved by the Institutional Animal Care and Use Committee.
(§3) Tumor Studies In Nude Mice: Cells growing as monolayers in T150 tissue culture flasks were detached by trypsinization with 10 ml of 0.05% trypsin plus 0.53 mM EDTA per flask. Tumor cell suspensions were pooled and trypsin was inactivated by the addition of serum containing medium (10 ml per 40 ml of trypsin cell suspension). Cells were collected by centrifugation and resuspended in Hank's Balanced Salt Solution (HBSS) warmed to 37° C. A 1.0 ml portion of cell suspension was added to 20 ml of diluent and counted on a Coulter particle counter. The cell suspensions were recentrifuged and resuspended at a concentration of 1×10^6 cell per 0.10 ml of HBSS. Mice were inoculated with a single subcutaneous injection of 0.10 ml of tumor cell suspension in the inguinal region. Mice were housed five per cage with 15 mice assigned to each treatment group. Body weight and tumor size as determined by caliper measurements were measured weekly. The caliper measurements of length and width were multiplied to obtain tumor areas. At the end of study, mice were sacrificed by CO2 asphyxiation.
[…] […] Control groups received the same dosage volume of the 20% beta-cyclodextrin vehicle.
[…] […] […] […] The final drug solutions were sterile filtered immediately and transferred to sterile tubes. Solutions were stored refrigerated and protected form light during the course of the study and sterility was maintained by opening solutions under sterile laminar flow conditions.

[3] = tested on: T24 H-ras transformed NIH3T3 cell tumors; experiment: Tumor studies in nude mice: T24 H-ras tumors, oral compound 1
Description: as §1
homologue of Harvey sarcoma virus ras gene. Nature 297: 474-478, 1982.; Santos, E., Tronick, S. R., Aaronson, S. A., Pulciani, S., and Barbacid, M. T24 human bladder carcinoma oncogene is an activated form of the normal human homologue of BALB-and Harvey-MSV transforming genes. Nature 298: 343-347, 1982.) T24 cells were maintained as monolayer cultures in Dulbecco's Modified Eagle's Medium (DMEM) supplemented with 10% Nu-serum Type IV (Collaborative Biomedical Products, Bedford, Mass. and 40 μg/ml G418 (Geneticin®, GIBCO-BRL, Gaithersburg, Md.).
as §2, §3
Three days after tumor inoculation, the five day treatment with (R)-6-[amino(4-chlorophenyl)(1-methyl-1H-imidazol-5yl)methyl]-4-(3-chlorophenyl)-1-methyl-2(1H)-quinolinone (compound 1) was initiated. Compound 1 was administered once daily by oral gavage in a 20% beta-cyclodextrin vehicle as a volume of 0.10 ml of solution per 10 gm body weight. Control groups received the same dosage volume of the 20% beta-cyclodextrin vehicle.
Compounds. Compound 1 was prepared for oral administration by dissolving the compound first as a 2× concentrated stock in 40% hydroxypropyl beta cyclodextrin (lot no. 051-071/1) in 0.1 N HCI. Compound 1 was dissolved by stirring vigorously approximately 30 minutes followed by sonication for 10 min. The compound 1 solutions were brought to a final concentration by diluting 1:1 with 0.1 N HCI. The final drug solutions were sterile filtered immediately and transferred to sterile tubes. Solutions were stored refrigerated and protected form light during the course of the study and sterility was maintained by opening solutions under sterile laminar flow conditions.

[4] = 50, 100 and 200 mg/kg, five-day schedule, day 17

## Cn1cncc1[C@@](N)(c1ccc(Cl)cc1)c1ccc2c(c1)c(-c1cccc(Cl)c1)cc(=O)n2C [compound 1, (R)-6-[amino(4-chlorophenyl)(1-methyl-1H-imidazol-5yl)methyl]-4-(3-chlorophenyl)-1-methyl-2(1H)-quinolinone]
[1]; 100 mg/kg
  duration of response (tumor suppressive effect): waned by day 14
[1]; 200 mg dose
  duration of response (tumor suppressive effect): sustained effects out to day 17
[1]; 200 mg/kg once daily p.o. for five days, no further treatment
  day by which tumors left untreated returned to rapid control growth rates: ≤ 24 days
[1]; single 200 mg/kg dose three days after tumor inoculation
  duration of sustained inhibition of tumor growth: 15 days
[1]; single 400 mg/kg dose three days after tumor inoculation
  duration of sustained inhibition of tumor growth: 15 days
[2]; 50 mg/kg twice daily (100 mg/kg total daily dose)
  tumor growth, continuous schedule: significant reductions of tumor growth
[2]; 100 mg/kg twice daily (200 mg/kg daily dose)
  tumor growth, continuous schedule: significant reductions of tumor growth
[2]; 200 mg/kg for five days, no further treatment
  tumor growth after day 24 without further treatment: returned to the growth rate observed for vehicle treated controls
[2]; 200 mg/kg p.o. once daily for five days, started three days after inoculation
  growth of CAPAN-2 tumors: significantly reduced the growth of CAPAN-2 tumors out to day 24
[2]; additional five-day treatment on days 21 to 25, significant on day 28
  tumor growth after additional five-day treatment: transient growth arrest
[3]; 50 mg/kg, five-day dosing schedule
  duration of response (tumor suppressive effect): waned by day 14
[3]; 200 mg/kg once daily p.o. for five days (days 3-8 after tumor inoculation), day 17
  tumor size on day 17: small tumors
[3]; 200 mg/kg, five-day schedule, day 17
  reduction of final tumor weights: 90%
[3]; [4]
  reduction of tumor growth measured as final tumor area: Significant, dose-related reductions
  reduction of tumor growth measured as final tumor weights: Significant, dose-related reductions
[3]; additional 5-day treatment with 200 mg/kg starting on day 21
  tumor growth after additional 5-day treatment: again arrested but not as dramatically as in the initial treatment
